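1) Cells in 96-well plates. 2) Compound, 48 h, 5 concentrations. 3) Linear interpolation between surrounding doses. 4) Unreached endpoint = highest concentration. The concentration for 50% growth inhibition is given as GI50.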 Active and inactive are the calls of the source. Cut-off read from the data, not from the text of the source: active = GI50 up to about 1.1 µM and inactive = higher.
Assays:
Experiment in all cases: NCI-60 cell line screen, 48 h
[1] = system: ACHN
[2] = system: M14
[3] = system: HOP-92
[4] = system: SW-620
[5] = system: IGROV-1
[6] = system: SNB-78
[7] = system: COLO 205
[8] = system: SK-MEL-2
[9] = system: UACC-257
[10] = system: SNB-19
[11] = system: UO-31
[12] = system: OVCAR-8
[13] = system: DMS-273
[14] = system: HCT-15
[15] = system: NCI-H460
[16] = system: M19-MEL
[17] = system: SN12C
[18] = system: SNB-75
[19] = system: CCRF-CEM
[20] = system: SK-OV-3
[21] = system: EKVX
[22] = system: SK-MEL-5
[23] = system: U-251
[24] = system: HT-29
[25] = system: A549
[26] = system: K562
[27] = system: DMS-114
[28] = system: HCC 2998
[29] = system: A498
[30] = system: LOX IMVI
[31] = system: HL-60
[32] = system: SF-539
[33] = system: RPMI-8226
[34] = system: MOLT-4
[35] = system: HCT-116
[36] = system: SK-MEL-28
[37] = system: KM-20L2
[38] = system: OVCAR-4
[39] = system: LXFL 529
[40] = system: TK-10
[41] = system: HOP-62
[42] = system: OVCAR-5
[43] = system: KM12
[44] = system: Malme-3M
[45] = system: SF-295
[46] = system: 786-0
[47] = system: NCI-H23
[48] = system: RXF 393
[49] = system: UACC-62
[50] = system: NCI-H226
[51] = system: XF498
[52] = system: SF-268
[53] = system: DLD-1
[54] = system: OVCAR-3
[55] = system: NCI-H522
[56] = system: SR
[57] = system: CAKI-1

Measured: GI50

CCOC(=O)C12CN(C34CC5CC(CC(C5)C3)C4)CC(C(=O)OCC)(C1=O)C(c1ccccc1)OC2c1ccccc1 (stereo not drawn)
inactive: [1] > 100 µM | [2] > 100 µM | [3] 2.04 µM | [4] > 100 µM | [5] > 100 µM | [6] > 100 µM | [7] > 100 µM | [8] > 100 µM | [9] > 100 µM | [10] > 100 µM | [11] > 100 µM | [12] > 100 µM | [13] > 100 µM | [15] > 100 µM | [16] > 100 µM | [17] > 10 µM | [18] 39.7 µM | [19] 44.3 µM | [20] > 100 µM | [21] > 100 µM | [22] 94.8 µM | [23] > 100 µM | [24] 61 µM | [25] > 100 µM | [26] 31.4 µM | [27] 52.2 µM | [28] > 100 µM | [29] > 100 µM | [30] 3.54 µM | [31] 9.25 µM | [32] > 10 µM | [33] 16.5 µM | [34] 35.6 µM | [35] > 10 µM | [36] > 100 µM | [37] > 100 µM | [38] 23 µM | [39] 31.3 µM | [40] > 100 µM | [41] > 100 µM | [42] > 100 µM | [43] > 100 µM | [44] > 100 µM | [45] > 100 µM | [46] > 100 µM | [47] 47.4 µM | [48] 19.4 µM | [49] > 100 µM | [50] 89.7 µM | [51] > 100 µM | [52] > 100 µM | [53] > 100 µM | [54] > 100 µM
> 100 µM: [14]

O=C(CC1(O)C(=O)Nc2ccccc21)c1ccncc1 (stereo not drawn)
inactive: [1] > 100 µM | [2] > 100 µM | [3] > 100 µM | [55] > 100 µM | [4] > 100 µM | [5] > 100 µM | [6] > 100 µM | [7] > 100 µM | [8] > 100 µM | [10] > 100 µM | [11] > 100 µM | [13] > 100 µM | [15] > 100 µM | [16] > 100 µM | [17] > 100 µM | [18] > 100 µM | [19] > 100 µM | [20] > 100 µM | [21] > 100 µM | [22] > 100 µM | [23] > 100 µM | [24] > 100 µM | [25] > 100 µM | [26] > 100 µM | [56] > 100 µM | [27] > 100 µM | [28] > 100 µM | [29] > 100 µM | [30] > 100 µM | [31] > 100 µM | [32] > 100 µM | [33] > 100 µM | [34] > 100 µM | [35] > 100 µM | [36] > 100 µM | [37] > 100 µM | [38] > 100 µM | [39] > 100 µM | [42] > 100 µM | [45] > 100 µM | [57] > 100 µM | [46] > 100 µM | [47] > 100 µM | [48] > 100 µM | [49] > 100 µM | [50] > 100 µM | [52] > 100 µM | [53] > 100 µM
> 100 µM: [14]

Reference: ChEMBL document CHEMBL1201862, “PubChem BioAssay data set” (2004)
